Two compounds from publication PMC7722097 (ChemMedChem, 2020) can be followed below.

The structures appear in SMILES notation. Entries after “also recorded” stand apart in the source; their conditions may differ.

One test concerns the target cIAP1-BIR3 (Homo sapiens, UniProt Q13490). The experiment in a line: DELFIA displacement assay, cIAP1-BIR3. The class given is binding.
In a further test the target is cIAP2-BIR3 (Homo sapiens, UniProt Q13489). The experiment in a line: DELFIA displacement assay, cIAP2-BIR3. The class given is binding.
In test [1] the target is wt-BIR3 (Lys311) domain of XIAP (Homo sapiens, UniProt P98170). The experiment in a line: Denaturation thermal shift, wt BIR3 of XIAP. The note with it: for Thermal shift data ATm XIAP-BIR3: Table 2.
Test [2] deals with HA-BIR3 of XIAP-expressing HEK293T cells (Homo sapiens, UniProt P98170). The experiment in a line: Immunoblot of HA-BIR3 XIAP-expressing HEK293T cells. The class given is cell-based. The note with it: 10 μM compound, 6 h, anti-HA antibody. For orientation: In western blotting, separated proteins are transferred to a membrane and probed.
Test [3] has as its target T1, BIR3 domain of XIAP (Homo sapiens, UniProt P98170). Nature of the test: Kinetic analysis using the DELFIA assay. It is filed as binding.
In test [4] the target is T1, BIR3 domain of XIAP. The experiment in a line: DELFIA displacement assay, XIAP-BIR3. The class given is binding.

As usually defined, the IC50 is the midpoint of a concentration-inhibition curve. Read a high IC50 as weaker potency in that assay. As usually defined, the Ki is a measure of affinity in units of concentration, obtained from inhibition or displacement. A higher Ki goes with a looser hold on the target.

Sequence of HA-BIR3 of XIAP-expressing HEK293T cells (P98170 253-347 limits assumed): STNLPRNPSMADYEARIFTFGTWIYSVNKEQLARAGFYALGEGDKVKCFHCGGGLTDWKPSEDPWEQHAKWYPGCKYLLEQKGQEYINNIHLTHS
T1 sequence (P98170 253-347): as the sequence (P98170 253-347 limits assumed) above
Sequence of wt-BIR3 (Lys311) domain of XIAP (P98170 253-347): as the sequence (P98170 253-347 limits assumed) above
Sequence of cIAP1-BIR3 (Q13490 258-363): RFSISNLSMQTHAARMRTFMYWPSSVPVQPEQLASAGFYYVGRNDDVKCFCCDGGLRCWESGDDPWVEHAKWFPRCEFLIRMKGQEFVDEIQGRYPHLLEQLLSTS
Sequence of cIAP2-BIR3 (Q13489 244-349): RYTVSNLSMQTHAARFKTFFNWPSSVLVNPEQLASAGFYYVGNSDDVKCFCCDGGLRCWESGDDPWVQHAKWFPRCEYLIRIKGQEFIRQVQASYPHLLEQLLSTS

In the case of `CN[C@@H](C)C(=O)N[C@@H](CNCc1ccc(S(=O)(=O)F)cc1)C(=O)N1CCC[C@H]1C(=O)N[C@@H]1CCc2c(F)cccc21` [compound 12, 4-((((S)-3-((S)-2-(((R)-4-fluoro-2,3-dihydro-1Hinden-1-yl)carbamoyl)pyrrolidin-1-yl)-2-((S)-2(methylamino)propanamido)-3oxopropyl)amino)methyl)benzene-1-sulfonyl fluoride], the IC50 amounted to 0.022 ± 0.004 µM on cIAP1-BIR3 and 0.0585 ± 0.0001 µM on cIAP2-BIR3.
On to `CN[C@@H](C)C(=O)N[C@@H](CNC(=O)c1ccc(S(=O)(=O)F)c(OC)c1)C(=O)N1CCC[C@H]1C(=O)N[C@@H]1CCc2c(F)cccc21` [compound 13, 4-(((S)-3-((S)-2-(((R)-4-fluoro-2,3-dihydro-1Hinden-1-yl)carbamoyl)pyrrolidin-1-yl)-2-((S)-2(methylamino)propanamido)-3-oxopropyl)carbamoyl)-2methoxybenzene-1-sulfonyl fluoride], for which the “Thermal shift data ATm XIAP-BIR3” value came to 27.0 ± 0.2 °C in test [1] (pre-incubation 30min (top value) at room temperature) and 27.2 ± 0.1 °C in test [1] (pre-incubation 2h (bottom value) at room temperature). The “ΔTm, BIR3 domain of XIAP, as stated in text or legend” value in test [1] (approximate values or bounds in running text, incubation 30 min or 2 h) is greater than 20 °C. In addition, the IC50 came to 0.141 ± 0.015 µM on cIAP1-BIR3, 0.492 ± 0.026 µM at cIAP2-BIR3 and 0.0156 ± 0.0008 µM on BIR3 domain of XIAP [4]. Besides, the “Covalent adduct formation in cell (band shift)” value in test [2] was “band shift”. Besides, the “Stabilization of HA-BIR3 in cell (western blot band intensity)” value in test [2] is given as “stabilized HA-BIR3; also recorded: most intense band”. On BIR3 domain of XIAP [3], the affinity corresponds to a Ki of 0.085 ± 0.003 µM. The “Selectivity XIAP vs cIAP1/2, in words” value at BIR3 domain of XIAP [4] (from DELFIA IC50 values of Table 2) is “more potent towards XIAP; also recorded: significantly more selective for XIAP compared to cIAP1/2”.
